Assay results reported in ChEMBL document CHEMBL1201862, “PubChem BioAssay data set” (2004).
The source made the active and inactive calls.

How the values were obtained:
[1] = target: Large T antigen (Simian virus 40, UniProt P03070); format: functional, Betapolyomavirus macacae;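 note: Confirmatory-stage PubChem screen for compounds that inhibit SV40 T antigen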
[2] = target: Genome polyprotein (dengue virus type 2, UniProt P29990); test: Dengue-2 NS5 methyltransferase inhibitors, primary screen, biochemical, confirmation dose response (AID 588689); format: functional
[3] = target: T1, Heat shock factor protein 1 (Mus musculus, UniProt P38532); test: HSF1 potentiators in luciferase reporter cells, confirmation, cell-based, NIH3T3, luminescence, dose retest (AID 435004); format: functional;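 note: stress induced by proteasome inhibitor MG132 added 30 min after compound; luciferase reporter driven by HSF1 response element in NIH3T3 cells; actives raise luminescence as potentiators of the MG132 stress response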
T1 sequence (P38532 whole entry): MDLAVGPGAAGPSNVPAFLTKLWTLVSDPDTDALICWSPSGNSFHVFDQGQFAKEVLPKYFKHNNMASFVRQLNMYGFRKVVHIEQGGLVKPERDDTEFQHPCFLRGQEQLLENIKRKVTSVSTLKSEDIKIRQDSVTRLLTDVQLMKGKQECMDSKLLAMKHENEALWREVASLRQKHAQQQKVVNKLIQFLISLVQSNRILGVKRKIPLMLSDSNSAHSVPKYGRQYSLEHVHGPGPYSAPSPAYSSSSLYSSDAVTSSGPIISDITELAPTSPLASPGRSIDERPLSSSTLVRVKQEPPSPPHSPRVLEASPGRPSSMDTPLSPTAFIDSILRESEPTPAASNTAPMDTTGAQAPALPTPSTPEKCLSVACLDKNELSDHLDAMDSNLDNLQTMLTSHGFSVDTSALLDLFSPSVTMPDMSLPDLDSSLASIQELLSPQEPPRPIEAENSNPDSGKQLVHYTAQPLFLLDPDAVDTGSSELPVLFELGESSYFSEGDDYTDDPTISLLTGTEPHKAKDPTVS

[4] = target: T2, Mannose-6-phosphate isomerase (Homo sapiens, UniProt P34949); test: human PMI inhibitors, high substrate, primary screen, biochemical, fluorescence intensity, high mannose 6-phosphate (AID 1220)
T2 sequence (P34949 whole entry): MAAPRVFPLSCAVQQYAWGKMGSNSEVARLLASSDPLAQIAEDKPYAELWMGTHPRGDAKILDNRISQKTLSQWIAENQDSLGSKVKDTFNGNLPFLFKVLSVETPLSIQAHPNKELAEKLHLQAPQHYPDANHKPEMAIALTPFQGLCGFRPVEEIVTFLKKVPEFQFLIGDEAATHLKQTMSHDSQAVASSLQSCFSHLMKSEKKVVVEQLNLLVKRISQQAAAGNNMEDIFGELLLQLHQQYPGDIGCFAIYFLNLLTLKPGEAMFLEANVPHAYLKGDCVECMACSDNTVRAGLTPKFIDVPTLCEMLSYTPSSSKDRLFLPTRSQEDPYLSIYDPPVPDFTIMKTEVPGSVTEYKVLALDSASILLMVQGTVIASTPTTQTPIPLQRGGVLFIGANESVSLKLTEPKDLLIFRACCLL

[5] = Luminescence Cell-Based Dose Confirmation HTS to Identify Activators of 5'UTR Stem-Loop Driven Alpha-Synuclein mRNA Translation in H4 Neuroglioblastoma Cells. [Related pubchem assays: 1829 (Project Summary), 1814 (Primary HTS)]; format: functional
[6] = Luminescence Cell-Based Dose Response HTS to Identify Activators of Luciferase Translation or Activity in H4 […] Cells. [Related pubchem assays: 1829 (Project Summary), 1814 (Primary HTS)]; format: functional
[7] = target: T3, Fatty acid synthase (Homo sapiens, UniProt P49327); test: FAS thioesterase domain inhibitors, dose response, biochemical, kinetic fluorescence intensity (AID 624326); format: functional;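 note: rate of fluorescence rise from hydrolysis of a fluorogenic O-methyl fluorescein ester substrate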
[8] = system: H4; test: Luminescence Cell-Based Dose Response HTS to Identify Activators of 5'UTR Stem-Loop Driven Prion Protein mRNA Translation in H4 Neuroglioblastoma Cells. [Related pubchem assays: 1829 (Project Summary), 1814 (Primary HTS)]; format: functional; settings: Homo sapiens
[9] = target: T3, Fatty acid synthase; test: FAS thioesterase domain inhibitors, dose response, biochemical, endpoint fluorescence intensity, uHTS hits (AID 624327); format: functional;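 note: fluorescence from hydrolysis of an O-methyl fluorescein acyl ester substrate by the enzyme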
[10] = target: T4, Leucine aminopeptidase (Plasmodium falciparum 3D7, UniProt Q8IL11); test: P. falciparum M17LAP inhibitors, primary screen, biochemical, fluorogenic H-Leu-NHMec substrate, 1536-well (AID 1619); format: functional
T4 sequence (Q8IL11 whole entry): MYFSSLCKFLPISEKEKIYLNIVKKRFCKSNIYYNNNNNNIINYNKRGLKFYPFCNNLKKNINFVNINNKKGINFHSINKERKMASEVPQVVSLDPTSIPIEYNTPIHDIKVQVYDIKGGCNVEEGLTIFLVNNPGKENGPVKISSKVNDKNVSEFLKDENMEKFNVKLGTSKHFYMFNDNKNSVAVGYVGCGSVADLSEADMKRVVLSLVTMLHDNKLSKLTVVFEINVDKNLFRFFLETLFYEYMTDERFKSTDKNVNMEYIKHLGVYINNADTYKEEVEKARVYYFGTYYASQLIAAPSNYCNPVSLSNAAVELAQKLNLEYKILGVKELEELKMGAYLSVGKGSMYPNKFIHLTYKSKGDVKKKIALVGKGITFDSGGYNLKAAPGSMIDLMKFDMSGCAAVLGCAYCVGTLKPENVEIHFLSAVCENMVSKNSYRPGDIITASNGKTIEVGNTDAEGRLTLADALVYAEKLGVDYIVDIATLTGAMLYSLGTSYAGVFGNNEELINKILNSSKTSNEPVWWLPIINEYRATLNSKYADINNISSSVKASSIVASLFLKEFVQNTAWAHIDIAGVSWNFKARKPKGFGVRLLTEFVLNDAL

[11] = Shn3 3'UTR reporter inhibitors, dose response, cell-based, Clone20 osteoblasts, firefly luciferase, cherry-picked (AID 624132); format: functional;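 note: firefly luciferase luminescence from reporter carrying the Shn3 3'UTR in osteoblasts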
[12] = control 3'UTR Renilla luciferase suppression, dose response, counter-screen for Shn3 inhibitor project, cell-based, Clone20-Shn3RL, cherry-picked (AID 624133); format: functional
[13] = target: Induced myeloid leukemia cell differentiation protein Mcl-1 (Homo sapiens, UniProt Q07820); format: functional
[14] = target: T5, Corticotropin-releasing factor receptor 2/Corticotropin-releasing factor-binding protein (Homo sapiens, UniProt P24387+Q13324); test: Dose Response confirmation of uHTS hits for small molecule antagonists of the CRF-binding protein and CRF-R2 receptor complex.; format: functional; settings: read-out: IC50_Mean
T5 sequence (Q13324 whole entry): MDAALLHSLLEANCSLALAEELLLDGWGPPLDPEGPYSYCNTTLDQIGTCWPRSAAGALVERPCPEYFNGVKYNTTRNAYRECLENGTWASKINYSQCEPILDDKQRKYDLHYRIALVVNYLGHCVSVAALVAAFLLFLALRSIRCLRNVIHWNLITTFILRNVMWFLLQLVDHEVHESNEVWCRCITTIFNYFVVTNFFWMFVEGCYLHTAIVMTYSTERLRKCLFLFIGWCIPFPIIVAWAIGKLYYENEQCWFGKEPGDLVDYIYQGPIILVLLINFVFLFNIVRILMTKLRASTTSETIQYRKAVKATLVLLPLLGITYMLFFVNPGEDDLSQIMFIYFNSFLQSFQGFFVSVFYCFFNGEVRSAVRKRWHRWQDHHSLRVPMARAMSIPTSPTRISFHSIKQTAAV
T5 sequence (P24387 whole entry): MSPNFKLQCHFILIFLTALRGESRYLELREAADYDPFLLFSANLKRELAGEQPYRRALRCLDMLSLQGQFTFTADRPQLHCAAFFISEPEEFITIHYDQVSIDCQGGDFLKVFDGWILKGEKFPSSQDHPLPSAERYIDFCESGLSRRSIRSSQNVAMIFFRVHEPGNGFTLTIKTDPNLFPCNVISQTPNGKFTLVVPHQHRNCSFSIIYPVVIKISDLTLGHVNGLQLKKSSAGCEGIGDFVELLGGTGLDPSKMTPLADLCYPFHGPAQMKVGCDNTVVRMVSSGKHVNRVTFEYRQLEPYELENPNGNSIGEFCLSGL

[15] = target: T5, Corticotropin-releasing factor receptor 2/Corticotropin-releasing factor-binding protein; test: activators of CRF receptor 2 with binding protein – uHTS hits, confirmation (AID 602473); format: functional; settings: read-out: EC50_Mean

Sequence of Genome polyprotein (P29990 2492-3391 limits assumed): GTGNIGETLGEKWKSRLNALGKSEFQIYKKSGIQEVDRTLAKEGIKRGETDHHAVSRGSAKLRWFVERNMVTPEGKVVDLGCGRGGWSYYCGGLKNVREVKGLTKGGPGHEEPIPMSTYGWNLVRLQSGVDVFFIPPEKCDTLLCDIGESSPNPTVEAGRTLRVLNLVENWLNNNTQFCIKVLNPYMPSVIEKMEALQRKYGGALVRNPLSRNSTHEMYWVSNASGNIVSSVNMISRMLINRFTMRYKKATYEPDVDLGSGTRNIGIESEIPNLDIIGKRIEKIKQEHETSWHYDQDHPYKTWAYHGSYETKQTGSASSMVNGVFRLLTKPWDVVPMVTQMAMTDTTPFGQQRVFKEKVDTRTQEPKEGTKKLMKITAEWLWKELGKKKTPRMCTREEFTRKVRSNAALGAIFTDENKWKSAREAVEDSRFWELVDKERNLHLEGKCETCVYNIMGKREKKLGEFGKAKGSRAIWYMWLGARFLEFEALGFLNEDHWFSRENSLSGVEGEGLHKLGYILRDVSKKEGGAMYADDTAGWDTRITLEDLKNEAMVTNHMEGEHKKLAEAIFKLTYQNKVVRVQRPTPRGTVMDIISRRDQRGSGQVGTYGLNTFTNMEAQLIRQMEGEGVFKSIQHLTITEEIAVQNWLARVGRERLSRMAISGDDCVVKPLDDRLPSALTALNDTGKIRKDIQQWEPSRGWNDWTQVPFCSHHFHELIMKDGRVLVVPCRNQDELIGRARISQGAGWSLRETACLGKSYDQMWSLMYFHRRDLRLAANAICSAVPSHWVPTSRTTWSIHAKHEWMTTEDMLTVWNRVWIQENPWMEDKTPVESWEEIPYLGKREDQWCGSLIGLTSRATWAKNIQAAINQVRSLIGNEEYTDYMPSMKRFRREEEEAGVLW
T3 sequence (P49327 whole entry, the tested form may be a part): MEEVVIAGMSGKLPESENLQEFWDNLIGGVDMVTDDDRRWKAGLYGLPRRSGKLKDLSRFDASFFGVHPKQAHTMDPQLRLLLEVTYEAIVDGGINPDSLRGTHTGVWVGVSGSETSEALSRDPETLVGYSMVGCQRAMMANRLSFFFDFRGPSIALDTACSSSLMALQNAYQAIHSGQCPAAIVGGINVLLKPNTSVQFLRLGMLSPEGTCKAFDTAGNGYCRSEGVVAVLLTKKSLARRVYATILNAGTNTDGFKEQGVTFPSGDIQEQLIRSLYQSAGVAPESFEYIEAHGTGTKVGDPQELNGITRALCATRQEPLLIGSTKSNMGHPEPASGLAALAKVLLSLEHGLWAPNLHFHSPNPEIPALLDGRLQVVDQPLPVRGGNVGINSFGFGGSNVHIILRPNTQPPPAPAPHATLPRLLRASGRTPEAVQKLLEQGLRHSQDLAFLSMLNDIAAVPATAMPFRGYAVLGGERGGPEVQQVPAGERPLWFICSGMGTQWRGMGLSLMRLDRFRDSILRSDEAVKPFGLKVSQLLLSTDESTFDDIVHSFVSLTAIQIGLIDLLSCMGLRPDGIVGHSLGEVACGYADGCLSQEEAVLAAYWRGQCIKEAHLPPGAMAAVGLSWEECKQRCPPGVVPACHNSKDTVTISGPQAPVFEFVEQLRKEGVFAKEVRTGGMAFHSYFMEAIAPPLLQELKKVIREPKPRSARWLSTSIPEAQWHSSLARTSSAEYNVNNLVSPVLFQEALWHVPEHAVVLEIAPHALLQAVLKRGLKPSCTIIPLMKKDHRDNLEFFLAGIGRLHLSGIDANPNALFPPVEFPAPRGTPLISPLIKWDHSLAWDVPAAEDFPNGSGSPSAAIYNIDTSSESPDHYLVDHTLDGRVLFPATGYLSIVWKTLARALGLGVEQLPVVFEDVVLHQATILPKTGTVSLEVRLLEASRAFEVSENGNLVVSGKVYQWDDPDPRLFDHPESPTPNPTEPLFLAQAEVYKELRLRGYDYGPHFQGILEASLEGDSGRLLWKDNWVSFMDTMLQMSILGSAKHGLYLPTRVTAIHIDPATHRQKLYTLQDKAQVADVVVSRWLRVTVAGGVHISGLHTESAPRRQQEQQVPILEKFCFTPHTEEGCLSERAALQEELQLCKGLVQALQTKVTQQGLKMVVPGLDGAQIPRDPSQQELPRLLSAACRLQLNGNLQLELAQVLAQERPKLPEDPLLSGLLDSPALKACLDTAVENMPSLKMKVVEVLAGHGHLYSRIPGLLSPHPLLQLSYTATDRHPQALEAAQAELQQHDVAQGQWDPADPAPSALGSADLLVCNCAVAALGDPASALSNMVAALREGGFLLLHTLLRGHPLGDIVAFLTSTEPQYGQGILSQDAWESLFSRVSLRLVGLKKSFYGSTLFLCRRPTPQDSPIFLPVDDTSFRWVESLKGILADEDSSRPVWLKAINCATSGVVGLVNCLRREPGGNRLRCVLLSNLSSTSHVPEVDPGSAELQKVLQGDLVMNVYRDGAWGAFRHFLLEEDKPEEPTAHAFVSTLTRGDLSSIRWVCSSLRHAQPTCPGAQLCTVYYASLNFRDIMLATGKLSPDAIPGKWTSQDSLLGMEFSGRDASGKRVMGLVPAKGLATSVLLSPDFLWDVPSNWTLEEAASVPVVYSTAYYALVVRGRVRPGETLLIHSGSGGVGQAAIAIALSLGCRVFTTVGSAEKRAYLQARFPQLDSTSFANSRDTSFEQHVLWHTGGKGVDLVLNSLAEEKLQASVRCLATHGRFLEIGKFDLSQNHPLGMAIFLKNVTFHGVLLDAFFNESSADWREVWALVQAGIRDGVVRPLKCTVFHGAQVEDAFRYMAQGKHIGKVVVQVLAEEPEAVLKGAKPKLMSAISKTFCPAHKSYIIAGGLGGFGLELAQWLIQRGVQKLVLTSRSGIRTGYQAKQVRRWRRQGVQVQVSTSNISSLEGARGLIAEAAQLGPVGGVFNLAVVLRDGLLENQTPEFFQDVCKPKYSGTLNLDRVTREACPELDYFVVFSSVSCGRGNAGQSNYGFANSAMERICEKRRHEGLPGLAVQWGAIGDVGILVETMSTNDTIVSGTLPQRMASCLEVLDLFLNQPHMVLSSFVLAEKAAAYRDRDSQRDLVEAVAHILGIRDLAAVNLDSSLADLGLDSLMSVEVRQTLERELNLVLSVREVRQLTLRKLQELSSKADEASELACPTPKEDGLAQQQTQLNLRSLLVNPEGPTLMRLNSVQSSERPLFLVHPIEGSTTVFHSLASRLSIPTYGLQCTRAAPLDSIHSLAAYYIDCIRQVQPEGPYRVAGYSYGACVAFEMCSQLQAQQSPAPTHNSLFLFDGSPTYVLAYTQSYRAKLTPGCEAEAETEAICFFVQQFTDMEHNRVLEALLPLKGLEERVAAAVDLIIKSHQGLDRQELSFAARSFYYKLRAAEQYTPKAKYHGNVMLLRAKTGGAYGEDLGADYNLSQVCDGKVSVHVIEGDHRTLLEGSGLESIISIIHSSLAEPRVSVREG
Sequence of Induced myeloid leukemia cell differentiation protein Mcl-1 (Q07820 whole entry): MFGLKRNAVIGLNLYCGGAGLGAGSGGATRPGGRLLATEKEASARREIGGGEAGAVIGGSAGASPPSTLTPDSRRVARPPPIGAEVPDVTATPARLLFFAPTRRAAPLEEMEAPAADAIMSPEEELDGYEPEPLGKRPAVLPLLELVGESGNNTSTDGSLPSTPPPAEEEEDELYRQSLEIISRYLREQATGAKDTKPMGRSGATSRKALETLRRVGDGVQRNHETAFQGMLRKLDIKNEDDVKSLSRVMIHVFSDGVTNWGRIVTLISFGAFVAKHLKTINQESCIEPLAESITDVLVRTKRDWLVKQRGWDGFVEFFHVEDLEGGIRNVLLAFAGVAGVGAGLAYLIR
Sequence of Large T antigen (P03070 whole entry): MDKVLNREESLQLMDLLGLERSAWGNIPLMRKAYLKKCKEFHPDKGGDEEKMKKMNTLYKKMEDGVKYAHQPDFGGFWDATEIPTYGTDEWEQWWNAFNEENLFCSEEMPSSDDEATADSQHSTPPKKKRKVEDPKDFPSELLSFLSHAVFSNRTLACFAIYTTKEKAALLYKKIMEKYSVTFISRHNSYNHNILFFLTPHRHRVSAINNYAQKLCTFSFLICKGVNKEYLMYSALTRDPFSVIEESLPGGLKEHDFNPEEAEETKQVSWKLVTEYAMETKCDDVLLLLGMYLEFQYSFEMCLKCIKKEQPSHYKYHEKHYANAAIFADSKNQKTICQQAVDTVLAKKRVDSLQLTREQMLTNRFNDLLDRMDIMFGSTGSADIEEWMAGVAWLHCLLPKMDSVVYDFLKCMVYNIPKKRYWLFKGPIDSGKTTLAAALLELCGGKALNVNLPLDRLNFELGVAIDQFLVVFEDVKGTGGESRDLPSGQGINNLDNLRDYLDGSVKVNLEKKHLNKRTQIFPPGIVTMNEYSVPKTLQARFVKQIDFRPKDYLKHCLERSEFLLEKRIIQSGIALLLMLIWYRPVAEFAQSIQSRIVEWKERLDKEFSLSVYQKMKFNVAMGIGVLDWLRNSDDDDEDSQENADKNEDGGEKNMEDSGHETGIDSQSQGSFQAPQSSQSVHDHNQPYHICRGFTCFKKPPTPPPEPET

O=C(CS(=O)(=O)c1ccccc1)c1cc2cc(F)ccc2oc1=O
IC50 [1]: 62.8 µM (active) | IC50 [2]: > 100 µM (active) | EC50 [3]: > 260 µM (inactive)

COCCN1C(=O)Cc2c1nc(N)c1c(N)nc(N3CCN(c4ccc(F)cc4)CC3)c(C#N)c21
IC50 [4]: > 50 µM (not active)

COc1ccc(OC)c(S(=O)(=O)ON2C(=O)c3ccccc3C2=O)c1
EC50 [5]: > 120 µM (not active) | EC50 [6]: > 120 µM (not active) | IC50 [7]: 3.19 µM (active) | EC50 [8]: > 120 µM (not active) | IC50 [9]: 3.72 µM (active)

CCOC(=O)c1c(-c2ccc(C)c(C)c2)csc1NC(=O)C1CC=CCC1C(=O)O (configuration not stated)
IC50 [10]: 10.3 µM (active) | IC50 [2]: 43.5 µM (active)

Cc1cc(=O)oc2c3c(cc(OCC(=O)Nc4ccc(CCO)cc4)c12)OC(C)(C)CC3
AC50 [11]: > 70 µM (inactive) | AC50 [12]: > 70 µM (inactive)

CCOc1cc2c(C#N)c(N3CCCCC3)nc(N)c2c(N)n1
IC50 [4]: > 50 µM (not active)

CN(C)c1ccc(NC(=O)/C=C/c2ccccc2Cl)cc1
IC50 [13]: > 54 µM (active)

COc1cccc(/C=C2\Oc3cc(OCC(=O)N4Cc5ccccc5C[C@H]4C(=O)O)ccc3C2=O)c1
IC50 [2]: 43.4 µM (active)

COc1cccc(C(=O)Nc2cc(Cl)c(O)c(Cl)c2)c1
IC50 [13]: 3.46 µM (not active)

Cc1nc2nc(-c3cccs3)cn2nc1C
IC50 [2]: 17.6 µM (active)

CCCC12CN(C(=O)c3ccc([N+](=O)[O-])cc3)CC(C)(CN(C(=O)c3ccc([N+](=O)[O-])cc3)C1)C2=O
IC50 [14]: > 47.1 µM (inactive) | EC50 [15]: > 53 µM (inactive) | IC50 [7]: 12.9 µM (active) | IC50 [9]: 9.85 µM (active)
